# Assay results reported in patent US20230028658A1, “EXPANDED DOSAGE REGIMENS FOR INTEGRIN INHIBITORS” (Pliant Therapeutics, Inc., priority 2021, published 2023).
# Molecular target: recombinant human integrin αvβ6 (Homo sapiens, UniProt P06756+P18564)
# Assay: Solid phase integrin αvβ6 binding assay
# Conditions: read-out: αvβ6 Inhibition IC50 (nM) - range
# Procedure: Microplates were coated with recombinant human integrin αvβ6 (2 μg/mL) in PBS (100 μL/well 25° C., overnight). The coating solution was removed, washed with wash buffer (0.05% Tween 20; 0.5 mM MnCl2; in 1×TBS). The plate was blocked with 200 μL/well of Block Buffer (1% BSA; 5% sucrose; 0.5 mM MnCl2; in 1×TBS) at 37° C. for 2 h. Dilutions of testing compounds and recombinant TGFβ1 LAP (0.67 μg/mL) in binding buffer (0.05% BSA; 2.5% sucrose; 0.5 mM MnCl2; in 1×TBS) were added. The plate was incubated for 2 hours at 25° C., washed, and incubated for 1 hour with Biotin-Anti-hLAP. Bound antibody was detected by peroxidase-conjugated streptavidin. The IC50 values for testing compounds were calculated by a four-parameter logistic regression.
# The compounds tested were compound samples prepared according to procedures described in the Synthetic Examples section, with the stereochemical purity as indicated in the Examples.
# Chain of recombinant human integrin αvβ6 (P06756 31-992 limits assumed): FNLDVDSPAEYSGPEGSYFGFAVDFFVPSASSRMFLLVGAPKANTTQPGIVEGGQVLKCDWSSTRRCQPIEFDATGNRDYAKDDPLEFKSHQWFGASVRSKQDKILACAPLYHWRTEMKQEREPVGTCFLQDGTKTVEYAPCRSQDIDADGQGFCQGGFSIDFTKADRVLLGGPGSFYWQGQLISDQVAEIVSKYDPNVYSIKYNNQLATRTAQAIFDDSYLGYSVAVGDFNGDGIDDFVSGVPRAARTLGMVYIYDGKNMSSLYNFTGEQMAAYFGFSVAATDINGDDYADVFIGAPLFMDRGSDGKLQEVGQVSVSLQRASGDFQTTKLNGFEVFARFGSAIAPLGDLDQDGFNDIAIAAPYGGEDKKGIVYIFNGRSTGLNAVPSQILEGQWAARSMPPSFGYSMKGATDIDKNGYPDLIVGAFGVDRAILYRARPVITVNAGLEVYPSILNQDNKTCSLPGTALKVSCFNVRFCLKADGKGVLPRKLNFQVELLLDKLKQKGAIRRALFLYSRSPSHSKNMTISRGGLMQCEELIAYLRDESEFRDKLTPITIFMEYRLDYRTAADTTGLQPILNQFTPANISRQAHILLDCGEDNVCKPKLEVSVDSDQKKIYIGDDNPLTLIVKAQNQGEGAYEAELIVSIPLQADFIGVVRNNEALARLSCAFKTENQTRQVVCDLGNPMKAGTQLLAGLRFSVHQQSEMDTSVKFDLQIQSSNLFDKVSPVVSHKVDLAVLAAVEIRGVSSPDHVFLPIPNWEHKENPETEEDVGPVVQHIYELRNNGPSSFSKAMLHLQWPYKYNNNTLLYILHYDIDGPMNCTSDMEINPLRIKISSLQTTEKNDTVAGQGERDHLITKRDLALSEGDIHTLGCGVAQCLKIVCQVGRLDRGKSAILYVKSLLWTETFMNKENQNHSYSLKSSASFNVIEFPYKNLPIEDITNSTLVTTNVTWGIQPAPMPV
# Chain of recombinant human integrin αvβ6 (P18564 22-707 limits assumed): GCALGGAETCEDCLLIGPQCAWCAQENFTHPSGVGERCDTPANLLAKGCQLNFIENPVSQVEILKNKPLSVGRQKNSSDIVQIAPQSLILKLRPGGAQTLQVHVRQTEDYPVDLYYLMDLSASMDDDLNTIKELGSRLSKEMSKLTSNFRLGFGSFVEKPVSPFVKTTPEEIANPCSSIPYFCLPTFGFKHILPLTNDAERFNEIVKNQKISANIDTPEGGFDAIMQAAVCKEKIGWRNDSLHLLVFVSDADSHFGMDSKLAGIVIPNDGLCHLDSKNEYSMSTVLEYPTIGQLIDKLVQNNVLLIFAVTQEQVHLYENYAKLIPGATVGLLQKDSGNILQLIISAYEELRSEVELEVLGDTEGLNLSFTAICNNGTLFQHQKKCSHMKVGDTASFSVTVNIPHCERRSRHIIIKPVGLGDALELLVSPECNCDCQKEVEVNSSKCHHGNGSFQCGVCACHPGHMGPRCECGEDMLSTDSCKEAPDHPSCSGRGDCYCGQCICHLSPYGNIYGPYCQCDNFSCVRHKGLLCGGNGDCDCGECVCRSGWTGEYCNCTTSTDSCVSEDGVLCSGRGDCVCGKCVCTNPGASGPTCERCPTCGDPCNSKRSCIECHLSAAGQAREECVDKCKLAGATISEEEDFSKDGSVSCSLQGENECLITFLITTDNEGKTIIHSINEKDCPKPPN
row,SMILES,IC50 [nM]
1,"CO[C@H](C)CN(CCCCc1ccc2c(n1)NCCC2)CC[C@H](Nc1ccncn1)C(=O)O [Compound 106, (S)-4-(((R)-2-methoxypropyl) (4-(5,6,7,8-tetrahydro-1,8-naphthyridin-2-yl)butyl)amino)-2-(pyrimidin-4-ylamino) butanoic acid]",< 50
2,"COC[C@@H](F)CN(CCCCc1ccc2c(n1)NCCC2)CC[C@H](Nc1ccncn1)C(=O)O [Compound 127, (S)-4-(((S)-2-fluoro-3-methoxypropyl) (4-(5,6,7,8-tetrahydro-1,8-naphthyridin-2-yl)butyl)amino)-2-(pyrimidin-4-ylamino) butanoic acid]",250 to 1000
3,"COC[C@@H](F)CN(CCCCc1ccc2c(n1)NCCC2)CC[C@H](Nc1ncc(C#N)cn1)C(=O)O [Compound 84, (S)-2-((5-cyanopyrimidin-2-yl)amino)-4-(((S)-2-fluoro-3-methoxypropyl) (4-(5,6,7,8-tetrahydro-1,8-naphthyridin-2-yl)butyl)amino) butanoic acid]",250 to 1000
4,"CO[C@H](C)CN(CCCCc1ccc2c(n1)NCCC2)CC[C@H](Nc1ncc(C#N)cn1)C(=O)O [Compound 68, (S)-2-((5-cyanopyrimidin-2-yl)amino)-4-(((R)-2-methoxypropyl) (4-(5,6,7,8-tetrahydro-1,8-naphthyridin-2-yl)butyl)amino) butanoic acid]",< 50
5,"O=C(O)[C@H](CCN(CCCCc1ccc2c(n1)NCCC2)C1CC1)Nc1ccncn1 [Compound 2, (S)-4-(cyclopropyl(4-(5,6,7,8-tetrahydro-1,8-naphthyridin-2-yl)butyl)amino)-2-(pyrimidin-4-ylamino) butanoic acid]",250 to 1000
6,"Cn1ncc2c(N[C@@H](CCN(CCCF)CCCCc3ccc4c(n3)NCCC4)C(=O)O)ncnc21 [Compound 136, (S)-4-((3-fluoropropyl) (4-(5,6,7,8-tetrahydro-1,8-naphthyridin-2-yl)butyl)amino)-2-((1-methyl-1H-pyrazolo[3,4-d]pyrimidin-4-yl)amino) butanoic acid]",< 50
7,"COC[C@@H](F)CN(CCCCc1ccc2c(n1)NCCC2)CC[C@H](Nc1cc(-c2ccccc2)ncn1)C(=O)O [Compound 128, (S)-4-(((S)-2-fluoro-3-methoxypropyl) (4-(5,6,7,8-tetrahydro-1,8-naphthyridin-2-yl)butyl)amino)-2-((6-phenylpyrimidin-4-yl)amino) butanoic acid]",> 1000
8,"CO[C@H](C)CN(CCCCc1ccc2c(n1)NCCC2)CC[C@H](Nc1ncc(C2CC2)cn1)C(=O)O [Compound 124, (S)-2-((5-cyclopropylpyrimidin-2-yl)amino)-4-(((R)-2-methoxypropyl) (4-(5,6,7,8-tetrahydro-1,8-naphthyridin-2-yl)butyl)amino) butanoic acid]",< 50
9,"O=C(O)[C@H](CCN(CCCCc1ccc2c(n1)NCCC2)CCC(F)F)Nc1ncc(Br)cn1 [Compound 131, (S)-2-((5-bromopyrimidin-2-yl)amino)-4-((3,3-difluoropropyl) (4-(5,6,7,8-tetrahydro-1,8-naphthyridin-2-yl)butyl)amino) butanoic acid]",50 to 250
10,"O=C(O)[C@H](CCN(CCCCc1ccc2c(n1)NCCC2)CCOc1ccc(F)cc1)Nc1ncc(C(F)(F)F)cn1 [Compound 139, (S)-4-((2-(4-fluorophenoxy)ethyl) (4-(5,6,7,8-tetrahydro-1,8-naphthyridin-2-yl)butyl)amino)-2-((5-(trifluoromethyl)pyrimidin-2-yl)amino) butanoic acid]",< 50
11,"O=C(O)[C@H](CCN(CCCCc1ccc2c(n1)NCCC2)CC(F)F)Nc1ncncc1-c1ccccc1 [Compound 119, (S)-4-((2,2-difluoroethyl) (4-(5,6,7,8-tetrahydro-1,8-naphthyridin-2-yl)butyl)amino)-2-((5-phenylpyrimidin-4-yl)amino) butanoic acid]",> 1000
12,"CO[C@H](C)CN(CCCCc1ccc2c(n1)NCCC2)CC[C@H](Nc1cc(-c2ccccc2)ncn1)C(=O)O [Compound 80, (S)-4-(((R)-2-methoxypropyl) (4-(5,6,7,8-tetrahydro-1,8-naphthyridin-2-yl)butyl)amino)-2-((6-phenylpyrimidin-4-yl)amino) butanoic acid]",< 50
13,"Cn1ncc2c(N[C@@H](CCN(CCCCc3ccc4c(n3)NCCC4)CC(F)F)C(=O)O)ncnc21 [Compound 88, (S)-4-((2,2-difluoroethyl) (4-(5,6,7,8-tetrahydro-1,8-naphthyridin-2-yl)butyl)amino)-2-((1-methyl-1H-pyrazolo[3,4-d]pyrimidin-4-yl)amino) butanoic acid]",> 1000
14,"CO[C@H](C)CN(CCCCc1ccc2c(n1)NCCC2)CC[C@H](Nc1ncncc1-c1ccccc1)C(=O)O [Compound 81, (S)-4-(((R)-2-methoxypropyl) (4-(5,6,7,8-tetrahydro-1,8-naphthyridin-2-yl)butyl)amino)-2-((5-phenylpyrimidin-4-yl)amino) butanoic acid]",< 50
15,"Cn1ncc2c(N[C@@H](CCN(CCCCc3ccc4c(n3)NCCC4)CCS(C)(=O)=O)C(=O)O)ncnc21 [Compound 101, (S)-2-((1-methyl-1H-pyrazolo[3,4-d]pyrimidin-4-yl)amino)-4-((2-(methylsulfonyl)ethyl) (4-(5,6,7,8-tetrahydro-1,8-naphthyridin-2-yl)butyl)amino) butanoic acid]",50 to 250

# Second part, the compound after the results:
row,IC50 [nM],SMILES
1,> 1000,"COCCN(CCCCc1ccc2c(n1)NCCC2)CC[C@H](Nc1nccc2ccccc12)C(=O)O [Compound 34, (S)-2-(isoquinolin-1-ylamino)-4-((2-methoxyethyl) (4-(5,6,7,8-tetrahydro-1,8-naphthyridin-2-yl)butyl)amino) butanoic acid]"
2,< 50,"COCCN(CCCCc1ccc2c(n1)NCCC2)CC[C@H](Nc1ncnc2cc(F)ccc12)C(=O)O [Compound 7, (S)-2-((7-fluoroquinazolin-4-yl)amino)-4-((2-methoxyethyl) (4-(5,6,7,8-tetrahydro-1,8-naphthyridin-2-yl)butyl)amino) butanoic acid]"
3,> 1000,"COCCN(CCCCc1ccc2c(n1)NCCC2)CC[C@H](Nc1ccnc2ccccc12)C(=O)O [Compound 36, (S)-4-((2-methoxyethyl) (4-(5,6,7,8-tetrahydro-1,8-naphthyridin-2-yl)butyl)amino)-2-(quinolin-4-ylamino) butanoic acid]"
4,< 50,"CO[C@H](C)CN(CCCCc1ccc2c(n1)NCCC2)CC[C@H](Nc1ncnc2ccccc12)C(=O)O [Compound 62, (S)-4-(((R)-2-methoxypropyl) (4-(5,6,7,8-tetrahydro-1,8-naphthyridin-2-yl)butyl)amino)-2-(quinazolin-4-ylamino) butanoic acid]"
5,< 50,"COCCN(CCCCc1ccc2c(n1)NCCC2)CC[C@H](Nc1cc(-n2cccn2)ncn1)C(=O)O [Compound 44, (S)-2-((6-(1H-pyrazol-1-yl)pyrimidin-4-yl)amino)-4-((2-methoxyethyl) (4-(5,6,7,8-tetrahydro-1,8-naphthyridin-2-yl)butyl)amino) butanoic acid]"
6,< 50,"CS(=O)(=O)CCN(CCCCc1ccc2c(n1)NCCC2)CC[C@H](Nc1ncnc2ccccc12)C(=O)O [Compound 27, (S)-4-((2-(methylsulfonyl)ethyl) (4-(5,6,7,8-tetrahydro-1,8-naphthyridin-2-yl)butyl)amino)-2-(quinazolin-4-ylamino) butanoic acid]"
7,< 50,"Cn1ncc2c(N[C@@H](CCN(CCCCc3ccc4c(n3)NCCC4)CCOc3ccccc3)C(=O)O)ncnc21 [Compound 82, (S)-2-((1-methyl-1H-pyrazolo[3,4-d]pyrimidin-4-yl)amino)-4-((2-phenoxyethyl) (4-(5,6,7,8-tetrahydro-1,8-naphthyridin-2-yl)butyl)amino) butanoic acid]"
8,< 50,"Cn1ncc2c(N[C@@H](CCN(CCCCc3ccc4c(n3)NCCC4)CCOc3ccc(F)cc3)C(=O)O)ncnc21 [Compound 123, (S)-4-((2-(4-fluorophenoxy)ethyl) (4-(5,6,7,8-tetrahydro-1,8-naphthyridin-2-yl)butyl)amino)-2-((1-methyl-1H-pyrazolo[3,4-d]pyrimidin-4-yl)amino) butanoic acid]"
9,< 50,"O=C(O)[C@H](CCN(CCCCc1ccc2c(n1)NCCC2)CCC(F)F)Nc1ncnc2ccccc12 [Compound 29, (S)-4-((3,3-difluoropropyl) (4-(5,6,7,8-tetrahydro-1,8-naphthyridin-2-yl)butyl)amino)-2-(quinazolin-4-ylamino) butanoic acid]"
10,< 50,"COCCN(CCCCc1ccc2c(n1)NCCC2)CC[C@H](Nc1ncnc2cccnc12)C(=O)O [Compound 16, (S)-4-((2-methoxyethyl) (4-(5,6,7,8-tetrahydro-1,8-naphthyridin-2-yl)butyl)amino)-2-(pyrido[3,2-d]pyrimidin-4-ylamino) butanoic acid]"
11,< 50,"O=C(O)[C@H](CCN(CCO)CCCCc1ccc2c(n1)NCCC2)Nc1ncnc2ccccc12 [Compound 75, (S)-4-((2-hydroxyethyl) (4-(5,6,7,8-tetrahydro-1,8-naphthyridin-2-yl)butyl)amino)-2-(quinazolin-4-ylamino) butanoic acid]"
12,< 50,"CO[C@@H](C)CN(CCCCc1ccc2c(n1)NCCC2)CC[C@H](Nc1ncnc2ccccc12)C(=O)O [Compound 25, (S)-4-(((S)-2-methoxypropyl) (4-(5,6,7,8-tetrahydro-1,8-naphthyridin-2-yl)butyl)amino)-2-(quinazolin-4-ylamino) butanoic acid]"
